This note sets out measurements from patent US7579469B2, “Glucocorticoid mimetics, methods of making them, pharmaceutical compositions, and uses thereof” (Boehringer Ingelheim Pharmaceuticals, Inc., priority 2003, dated 2009).

The experiment deals with T1, human glucocorticoid receptor (GR) complex (Homo sapiens, UniProt P04150).
T1 construct: made in house; host or cells: insect expression system (baculovirus lysate)
T1 sequence (P04150 1-777): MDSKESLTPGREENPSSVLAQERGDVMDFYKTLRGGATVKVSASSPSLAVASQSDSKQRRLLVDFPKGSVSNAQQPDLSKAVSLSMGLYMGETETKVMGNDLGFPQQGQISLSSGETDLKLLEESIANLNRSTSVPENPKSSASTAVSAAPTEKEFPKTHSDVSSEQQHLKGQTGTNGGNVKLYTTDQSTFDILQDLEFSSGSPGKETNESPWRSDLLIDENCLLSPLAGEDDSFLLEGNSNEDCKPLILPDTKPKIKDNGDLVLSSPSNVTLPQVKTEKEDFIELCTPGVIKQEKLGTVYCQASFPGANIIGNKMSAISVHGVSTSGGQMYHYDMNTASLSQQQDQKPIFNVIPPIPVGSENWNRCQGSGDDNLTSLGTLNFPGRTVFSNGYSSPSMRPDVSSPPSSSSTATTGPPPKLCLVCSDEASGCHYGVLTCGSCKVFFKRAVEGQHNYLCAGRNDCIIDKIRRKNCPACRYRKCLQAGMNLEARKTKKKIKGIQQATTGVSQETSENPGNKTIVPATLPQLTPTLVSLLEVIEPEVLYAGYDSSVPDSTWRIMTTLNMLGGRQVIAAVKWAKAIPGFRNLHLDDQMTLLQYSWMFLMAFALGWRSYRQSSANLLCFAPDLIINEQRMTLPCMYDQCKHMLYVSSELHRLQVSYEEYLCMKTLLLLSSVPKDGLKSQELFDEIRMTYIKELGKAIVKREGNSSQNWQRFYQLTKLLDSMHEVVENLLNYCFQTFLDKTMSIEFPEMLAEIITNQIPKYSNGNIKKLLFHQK
Nature of the experiment: Glucocorticoid receptor competitive binding assay (fluorescence polarization). The following applies: competition with TAMRA-labeled dexamethasone. Summed up: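 Fluorescence polarization competition against TAMRA-labelled dexamethasone (50 μL of 15 nM added) for human GR complex from baculovirus insect-cell lysate, diluted 1:170, in TES/KCl/molybdate buffer, pH 7.4.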
A general note: Fluorescence polarisation rises when a labelled molecule tumbles more slowly, as on binding a larger partner.
As for `CC(C)(CC(O)(Cn1ccc(=O)c2ccccc21)C(F)(F)F)c1cc(F)cc(F)c1` (stereo not shown), the “activity in the GR binding assay” value is listed as “potent activity”.

Take `COc1ccc(F)cc1C(C)(C)CC(O)(CN1CC(C)N(C=O)C(C)C1)C(F)(F)F` (stereo not shown) [4-[4-(5-Fluoro-2-methoxyphenyl)-2-hydroxy-4-methyl-2-trifluoromethylpentyl]-2,6-dimethylpiperazine-1-carbaldehyde]: the “activity in the GR binding assay” value is “potent activity”.

As to `C/C(=N/OCc1ccccc1)c1cccc(C(C)(C)CC(O)(Cn2ccc(=O)c3ccccc32)C(F)(F)F)c1` (stereo not shown) [1-(4-{3-[1-(Benzyloxyimino)ethyl]phenyl}-2-hydroxy-4-methyl-2-trifluoromethylpentyl)-1H-quinolin-4-one], the “activity in the GR binding assay” value is recorded as “potent activity”.

In the case of `COc1ccc(F)cc1C(C)(C)CC(O)(CN1CCc2ccccc21)C(F)(F)F` (stereo not shown) [2-(2,3-Dihydroindol-1-ylmethyl)-1,1,1-trifluoro-4-(5-fluoro-2-methoxyphenyl)-4-methylpentan-2-ol], the “activity in the GR binding assay” value was “potent activity”.

In the case of `COc1ccc(F)cc1C(C)(C)CC(O)(CN1CC[S+]([O-])c2ccccc21)C(F)(F)F` (stereo not shown) [1,1,1-Trifluoro-4-(5-fluoro-2-methoxyphenyl)-4-methyl-2-(1-oxo-2,3-dihydro-1H-1λ^4-benzo[1,4]thiazin-4-ylmethyl)pentan-2-ol], the “activity in the GR binding assay” value was “potent activity”.

`COc1ccc(F)cc1C(C)(C)CC(O)(Cn1ncc(=O)c2ccccc21)C(F)(F)F` (stereo not shown) [1-[4-(5-Fluoro-2-methoxyphenyl)-2-hydroxy-4-methyl-2-trifluoromethylpentyl]-1H-cinnolin-4-one]: the “activity in the GR binding assay” value is given as “potent activity”.

Turning to `CC(C)(CC(O)(Cn1ccc(=O)c2ccccc21)C(F)(F)F)c1ccc(O)c(F)c1` (stereo not shown) [1-[4-(3-Fluoro-4-hydroxyphenyl)-2-hydroxy-4-methyl-2-trifluoromethylpentyl]-1H-quinolin-4-one], the “activity in the GR binding assay” value is “potent activity”.

For `COc1ccc(F)cc1C(C)(C)CC(O)(Cn1cc(C)c(=O)c(C)c1CO)C(F)(F)F` (stereo not shown) [1-[4-(5-Fluoro-2-methoxyphenyl)-2-hydroxy-4-methyl-2-trifluoromethylpentyl]-2-hydroxymethyl-3,5-dimethyl-1H-pyridin-4-one], the “activity in the GR binding assay” value is “potent activity”.

As to `CC(C)(CC(O)(Cn1cnc(=O)c2ccccc21)C(F)(F)F)c1cc(F)ccc1O` (stereo not shown), the “activity in the GR binding assay” value was “potent activity”.

As to `COc1ccc(F)cc1C(C)(C)CC(O)(Cn1ccc(=O)c2ccc(F)cc21)C(F)(F)F` (stereo not shown) [7-Fluoro-1-[4-(5-fluoro-2-methoxyphenyl)-2-hydroxy-4-methyl-2-trifluoromethylpentyl]-1H-quinolin-4-one], the “activity in the GR binding assay” value is given as “potent activity”.

Take `CC(C)(CC(O)(Cn1ccc(=O)c2ccc(O)cc21)C(F)(F)F)c1cc(F)ccc1O` (stereo not shown): the “activity in the GR binding assay” value is listed as “potent activity”.

For `Cc1ccc(C(C)(C)CC(O)(Cn2ccc(=O)c3ccccc32)C(F)(F)F)cc1C` (stereo not shown), the “activity in the GR binding assay” value was “potent activity”.

On to `CC(=O)c1cccc(C(C)(C)CC(O)(Cn2ccc(=O)c3ccccc32)C(F)(F)F)c1` (stereo not shown) [1-[4-(3-Acetylphenyl)-2-hydroxy-4-methyl-2-trifluoromethylpentyl]-1H-quinolin-4-one], for which the “activity in the GR binding assay” value is “potent activity”.

Take `COc1ccc(Br)cc1C(C)(C)CC(O)(Cn1ccc(=O)c2ccccc21)C(F)(F)F` (stereo not shown) [1-[4-(5-Bromo-2-methoxyphenyl)-2-hydroxy-4-methyl-2-trifluoromethylpentyl]-1H-quinolin-4-one]: the “activity in the GR binding assay” value is listed as “potent activity”.

Consider `COc1ccc(F)cc1C(C)(C)CC(O)(Cn1ccc(=O)c2cc(Cl)ccc21)C(F)(F)F` (stereo not shown) [6-Chloro-1-[4-(5-fluoro-2-methoxyphenyl)-2-hydroxy-4-methyl-2-trifluoromethylpentyl]-1H-quinolin-4-one], for which the “activity in the GR binding assay” value is “potent activity”.

On to `COc1ccc(CO)cc1C(C)(C)CC(O)(Cn1ccc(=O)c2ccccc21)C(F)(F)F` (stereo not shown) [1-[2-Hydroxy-4-(5-hydroxymethyl-2-methoxyphenyl)-4-methyl-2-trifluoromethylpentyl]-1H-quinolin-4-one], for which the “activity in the GR binding assay” value is “potent activity”.

Turning to `C[S+]([O-])c1cc2c(c(C(C)(C)CC(O)(Cn3ccc(=O)c4ccccc43)C(F)(F)F)c1)OCC2` (stereo not shown) [1-[2-Hydroxy-4-(5-methanesulfinyl-2,3-dihydrobenzofuran-7-yl)-4-methyl-2-trifluoromethylpentyl]-1H-quinolin-4-one], the “activity in the GR binding assay” value is listed as “potent activity”.

`COc1ccc(F)cc1C(C)(C)CC(O)(Cn1ccc(=O)c2ccccc21)C(F)F` (stereo not shown): the “activity in the GR binding assay” value is “potent activity”.

Consider `CC(C)(CC(O)(Cn1ccc(=O)c2ccccc21)C(F)(F)F)c1cc(F)ccc1OC(F)F` (stereo not shown), for which the “activity in the GR binding assay” value is “potent activity”.

As to `COc1ccc(F)cc1C(C)(C)CC(O)(Cn1ccc(=O)c2cc(C)ccc21)C(F)(F)F` (stereo not shown), the “activity in the GR binding assay” value is recorded as “potent activity”.

Turning to `Cc1cn(CC(O)(CC(C)(C)c2cc(F)ccc2O)C(F)(F)F)c(CO)c(C)c1=O` (stereo not shown) [1-[4-(5-Fluoro-2-hydroxyphenyl)-2-hydroxy-4-methyl-2-trifluoromethylpentyl]-2-hydroxymethyl-3,5-dimethyl-1H-pyridin-4-one], the “activity in the GR binding assay” value is “potent activity”.

Take `CC(C)(CC(O)(Cn1ccc(=O)c2ccccc21)C(F)(F)F)c1cccc(C2OCCCO2)c1` (stereo not shown) [1-[4-(3-[1,3]Dioxan-2-ylphenyl)-2-hydroxy-4-methyl-2-trifluoromethylpentyl]-1H-quinolin-4-one]: the “activity in the GR binding assay” value is recorded as “potent activity”.

In the case of `COc1ccc(F)cc1C(C)(C)CC(O)(CN1CCN(C)c2ccccc21)C(F)(F)F` (stereo not shown) [1,1,1-Trifluoro-4-(5-fluoro-2-methoxyphenyl)-4-methyl-2-(4-methyl-3,4-dihydro-2H-quinoxalin-1-ylmethyl)pentan-2-ol], the “activity in the GR binding assay” value is listed as “potent activity”.

Regarding `COc1ccc(F)cc1C(C)(C)CC(O)(CN1CCN(c2ncc(C(F)(F)F)cc2Cl)CC1)C(F)(F)F` (stereo not shown) [2-[4-(3-Chloro-5-trifluoromethylpyridin-2-yl)piperazin-1-ylmethyl]-1,1,1-trifluoro-4-(5-fluoro-2-methoxyphenyl)-4-methylpentan-2-ol], the “activity in the GR binding assay” value is “potent activity”.

As for `Cc1ccc(O)c(C(C)(C)CC(O)(Cn2ccc(=O)c3ccccc32)C(F)(F)F)c1` (stereo not shown) [1-[2-Hydroxy-4-(2-hydroxy-5-methylphenyl)-4-methyl-2-trifluoromethylpentyl]-1H-quinolin-4-one], the “activity in the GR binding assay” value is “potent activity”.

With `COc1ccc(C(C)(C)CC(O)(Cn2ccc(=O)c3ccccc32)C(F)(F)F)cc1F` (stereo not shown) [1-[4-(3-Fluoro-4-methoxyphenyl)-2-hydroxy-4-methyl-2-trifluoromethylpentyl]-1H-quinolin-4-one], the “activity in the GR binding assay” value was “potent activity”.

For `CC(C)Oc1ccc(F)cc1C(C)(C)CC(O)(Cn1ccc(=O)c2ccccc21)C(F)(F)F` (stereo not shown), the “activity in the GR binding assay” value was “potent activity”.

For the molecule `CCC(C)(CC(O)(Cn1ccc(=O)c2ccccc21)C(F)(F)F)c1ccccc1` (stereo not shown) [1-(2-Hydroxy-4-methyl-4-phenyl-2-trifluoromethylhexyl)-1H-quinolin-4-one], the “activity in the GR binding assay” value was “potent activity”.

`CC(C)(CC(O)(Cn1ccc(=O)c2ccccc21)C(F)(F)F)c1cccc(F)c1` (stereo not shown) [1-[4-(3-Fluorophenyl)-2-hydroxy-4-methyl-2-trifluoromethylpentyl]-1H-quinolin-4-one]: the “activity in the GR binding assay” value is listed as “potent activity”.

In the case of `COc1ccc(-c2cncnc2)cc1C(C)(C)CC(O)(Cn1ccc(=O)c2ccccc21)C(F)(F)F` (stereo not shown), the “activity in the GR binding assay” value is recorded as “potent activity”.

For `COc1ccc(-c2cccnc2)cc1C(C)(C)CC(O)(Cn1ccc(=O)c2ccccc21)C(F)(F)F` (stereo not shown), the “activity in the GR binding assay” value is reported as “potent activity”.

Take `COc1ccc(F)cc1C(C)(C)CC(O)(Cn1ccc(=O)c2cc(F)ccc21)C(F)(F)F` (stereo not shown) [6-Fluoro-1-[4-(5-fluoro-2-methoxyphenyl)-2-hydroxy-4-methyl-2-trifluoromethylpentyl]-1H-quinolin-4-one]: the “activity in the GR binding assay” value is recorded as “potent activity”.

As for `COc1ccc(-c2c(C)noc2C)cc1C(C)(C)CC(O)(Cn1ccc(=O)c2ccccc21)C(F)(F)F` (stereo not shown) [1-{4-[5-(3,5-Dimethylisoxazol-4-yl)-2-methoxyphenyl]-2-hydroxy-4-methyl-2-trifluoromethylpentyl}-1H-quinolin-4-one], the “activity in the GR binding assay” value is reported as “potent activity”.

Regarding `CC(C)(CC(O)(Cn1ccc(=O)c2ccccc21)C(F)(F)F)c1cc(-c2ccccc2)ccc1O` (stereo not shown) [1-[2-Hydroxy-4-(4-hydroxybiphenyl-3-yl)-4-methyl-2-trifluoromethylpentyl]-1H-quinolin-4-one], the “activity in the GR binding assay” value is given as “potent activity”.
